Three molecules from patent US10782295B2, “Cysteine-reactive ligand discovery in proteomes” (THE SCRIPPS RESEARCH INSTITUTE, priority 2013, dated 2020) can be followed below.

The structures appear in SMILES notation. Bounds are passed on as bounds.

The subject of assay [1] is AHSG. The experiment in a line: competitive isoTOP-ABPP, MDA-MB-231 soluble proteome. The format is binding, human. To be noted: 100 μM LDE, 60 min; peptide C*DSSPDSAEDVR
The method, then:
(§1) Here, we envisioned that isoTOP-ABPP could be advanced to discover and quantify reactions between cysteines in proteomes and any electrophilic compound. In this advanced, ‘competitive’ version of isoTOP-ABPP (FIG. 1a), a proteome is treated with an electrophile (experimental sample) or DMSO (control sample). Both proteomic samples are then labeled with the IA probe and conjugated by CuAAC to light and heavy azide-biotin tags, respectively. The light and heavy samples are then mixed and subjected to our described isoTOP-ABPP protocol for enrichment, identification, and quantification of IA-labeled cysteines^30. Electrophile-modified cysteines are quantified by measuring the MS1 chromatographic peak ratios (R values) for heavy (DMSO-treated) over light (electrophile-treated) samples, with higher R values reflecting greater sensitivity to the electrophile. In this format, competitive isoTOP-ABPP can assay electrophiles against 1000+ cysteines in parallel directly in native proteomes without requiring any chemical modification to the electrophiles themselves.
(§2) Competitive isoTOP-ABPP experiments were performed in quadruplicate using the soluble proteome of the human breast cancer cell line MDA-MB-231 cell line. Proteomes were treated with 100 μM HNE, 15d-PGJ2, or 2-HD, for 60 minutes, followed by the IA-probe (100 μM, 60 min) A total of ˜1400 cysteine reactivities were quantified across the aggregate data set, with at least 900 cysteine reactivities quantified for each LDE (FIG. 2a) more than 750 of which were quantified for all the three electrophiles.
HNE was purchased from EMD biosciences, 15d-PGJ2 was purchased from Cayman Chemicals and 2-HD was purchased from Santa Cruz Biotechnology. Proteome samples were diluted to a 4 mg protein/mL solution in PBS. […]
(§3) IA-probe labeled peptides were identified by SEQUEST2 and DTASelect3, and the quantification of heavy/light ratios (isoTOP-ABPP ratios, R) was performed by an in-house software (CIMAGE) as previously described. […]

Assay [2] has as its target ZAK (Homo sapiens, UniProt Q9NYL2). Described as above. The format is binding. The conditions noted are these: 60 min; for R value (isoTOP-ABPP ratio heavy/light) for IA-labeled cysteine of ZAK: 100 μM LDE, peptide FDDLQFFENC*GGGSFGSVYR
Details: directly in native proteomes; endogenous in cells; host or cells: MDA-MB-231. The method, then:
as §1, §2
(§4) The MDA-MB-231 cell proteome was treated with varying concentrations of HNE (5, 10, 50, 100 and 500 μM) for 60 min and then the IA-labeling profile of each reaction was quantitatively compared to a DMSO-control sample by isoTOP-ABPP.
(§5) HNE was purchased from EMD biosciences, 15d-PGJ2 was purchased from Cayman Chemicals and 2-HD was purchased from Santa Cruz Biotechnology. Proteome samples were diluted to a 4 mg protein/mL solution in PBS. For each profiling experiment, one aliquot of the proteome sample (0.5 mL) was treated with 100 μM of LDE using 5 μL of a 10 mM stock and the other aliquot was treated with 5 μL of either ethanol (for HNE and 15d-PGJ2) or DMSO (for 2-HD) as control. For the concentration-dependent profiling experiments using HNE, aliquots of the proteomes (0.5 mL each) were treated with 5, 10, 50, 100 and 500 μM of HNE using 5 μL of 0.5, 1.0, 5, 10 and 50 mM of stock solution, respectively. After 60 minutes of treatment at room temperature, both the LDE-treated and control aliquots were passed through a NAP-5 Sephadex column (GE healthcare) to remove any unreacted LDE. The volume of each aliquot was increased to 1 mL with the concentration at 2 mg/mL after this step. […]

A short description of assay [3]: competitive isoTOP-ABPP, proteome-wide cysteine reactivity. Type of assay: binding, human. The conditions noted are these: for proteome reactivity profile, high sensitivity (R>5) cysteine targets: 100 μM LDE, 60 min. How it is done:
as §1, §2, §4
By combining the R values at all 5 HNE concentrations, we could extrapolate IC50 values for […] of IA probe-labeling for ˜700 of the 1100 cysteines (FIG. 3a).
as §5, with “respectively.” for “respectively. After 60 minutes of treatment at room temperature, both the LDE-treated and control aliquots were passed through a NAP-5 Sephadex column (GE healthcare) to remove any unreacted LDE. The volume of each aliquot was increased to 1 mL with the concentration at 2 mg/mL after this step.”

The target in assay [4] is T1, RPL23 (Homo sapiens, UniProt P62829).
T1 construct: directly in native proteomes; endogenous in cells; host or cells: MDA-MB-231
The experiment in a line: competitive isoTOP-ABPP, MDA-MB-231 soluble proteome. The format is binding. The conditions noted are these: 100 μM LDE, 60 min; peptide ISLGLPVGAVINC*ADNTGAK. The method, then:
as §1, §2
(§6) HNE was purchased from EMD biosciences, 15d-PGJ2 was purchased from Cayman Chemicals and 2-HD was purchased from Santa Cruz Biotechnology. Proteome samples were diluted to a 4 mg protein/mL solution in PBS. For each profiling experiment, one aliquot of the proteome sample (0.5 mL) was treated with 100 μM of LDE using 5 μL of a 10 mM stock and the other aliquot was treated with 5 μL of either ethanol (for HNE and 15d-PGJ2) or DMSO (for 2-HD) as control. For the concentration-dependent profiling experiments using HNE, aliquots of the proteomes (0.5 mL each) were treated with 5, 10, 50, 100 and 500 μM of HNE using 5 μL of 0.5, 1.0, 5, 10 and 50 mM of stock solution, respectively. After 60 minutes of treatment at room temperature, both the LDE-treated and control aliquots were passed through a NAP-5 Sephadex column (GE healthcare) to remove any unreacted LDE. The volume of each aliquot was increased to 1 mL with the concentration at 2 mg/mL after this step.
(§7) Each of the control and LDE-treated proteome samples (˜2 mg protein/mL in 1 mL volume) was treated with 100 μM of IA-probe using 10 μL of a 10 mM stock in DMSO. The labeling reactions were incubated at room temperature for 1 hour. Click chemistry (acetylene-azide cycloaddition) was performed by the addition of 100 μM of either the Heavy-TEV-Tag (for the control sample) or Light-TEV-Tag (for the LDE-treated sample) (20 μL of a 5 mM stock), 1 mM TCEP (fresh 50× stock in water), 100 μM ligand (17× stock in DMSO:t-Butanol 1:4) and 1 mM CuSO4 (50× stock in water). Samples were allowed to react at room temperature for 1 hour. After the click chemistry step, the light and heavy-labeled samples were mixed together and centrifuged (5900×g, 4 min, 4° C.) to pellet the precipitated proteins.
(§8) The pellets were washed twice in cold MeOH, after which the pellet was solubilized in PBS containing 1.2% SDS via sonication and heating (5 min, 80° C.). Samples were subjected to streptavidin enrichment of probe-labeled proteins, sequential on-bead trypsin and TEV digestion, and liquid chromatography-mass spectrometry (LC-MS) analysis according to the published isoTOP-ABPP protocol^30.
as §3

The target of assay [5] is T2, PEC1 (Homo sapiens, UniProt O75521).
T2 construct: directly in native proteomes; endogenous in cells; host or cells: MDA-MB-231
T2 sequence (O75521 39-394): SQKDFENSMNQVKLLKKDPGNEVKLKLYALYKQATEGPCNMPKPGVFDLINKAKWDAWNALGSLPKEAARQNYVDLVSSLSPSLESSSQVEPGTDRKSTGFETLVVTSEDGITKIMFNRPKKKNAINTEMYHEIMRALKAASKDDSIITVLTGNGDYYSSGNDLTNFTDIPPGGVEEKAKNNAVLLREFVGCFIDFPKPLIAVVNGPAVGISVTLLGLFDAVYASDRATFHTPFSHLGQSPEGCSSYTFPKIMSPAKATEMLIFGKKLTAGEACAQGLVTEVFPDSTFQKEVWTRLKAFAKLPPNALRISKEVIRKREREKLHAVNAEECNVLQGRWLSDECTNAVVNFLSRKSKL
The description is as above. Type of assay: binding. The conditions noted are these: 100 μM LDE, 60 min; peptide WLSDEC*TNAVVNFLSR
The method, then:
as §1, §2, §6, §7, §8, §3

Assay [6] addresses T3, DYNC1L11 (Homo sapiens, UniProt Q9Y6G9).
T3 construct: directly in native proteomes; endogenous in cells; host or cells: MDA-MB-231
The assay is described as above. Type of assay: binding. To be noted: 100 μM LDE, 60 min; peptide SEQ ID NO: 25 (...NLWSC*ILSEVSTR). How it is done:
as §1, §2, §6, §7, §8, §3

T3 sequence (Q9Y6G9 whole entry): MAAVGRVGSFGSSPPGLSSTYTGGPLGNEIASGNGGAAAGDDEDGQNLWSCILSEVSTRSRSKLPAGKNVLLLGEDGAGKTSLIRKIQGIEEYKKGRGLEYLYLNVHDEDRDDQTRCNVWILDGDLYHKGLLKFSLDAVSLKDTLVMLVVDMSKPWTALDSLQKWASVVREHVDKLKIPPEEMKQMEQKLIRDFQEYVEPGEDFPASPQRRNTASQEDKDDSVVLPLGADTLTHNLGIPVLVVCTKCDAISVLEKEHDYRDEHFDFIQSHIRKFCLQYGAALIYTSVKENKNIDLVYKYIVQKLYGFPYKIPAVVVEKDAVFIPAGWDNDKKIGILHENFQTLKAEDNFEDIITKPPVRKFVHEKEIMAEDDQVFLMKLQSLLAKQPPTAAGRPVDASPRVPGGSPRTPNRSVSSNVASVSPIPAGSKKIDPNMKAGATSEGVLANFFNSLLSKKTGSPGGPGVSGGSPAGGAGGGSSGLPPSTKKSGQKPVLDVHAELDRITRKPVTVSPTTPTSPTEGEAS
Sequence of ZAK (Q9NYL2 whole entry): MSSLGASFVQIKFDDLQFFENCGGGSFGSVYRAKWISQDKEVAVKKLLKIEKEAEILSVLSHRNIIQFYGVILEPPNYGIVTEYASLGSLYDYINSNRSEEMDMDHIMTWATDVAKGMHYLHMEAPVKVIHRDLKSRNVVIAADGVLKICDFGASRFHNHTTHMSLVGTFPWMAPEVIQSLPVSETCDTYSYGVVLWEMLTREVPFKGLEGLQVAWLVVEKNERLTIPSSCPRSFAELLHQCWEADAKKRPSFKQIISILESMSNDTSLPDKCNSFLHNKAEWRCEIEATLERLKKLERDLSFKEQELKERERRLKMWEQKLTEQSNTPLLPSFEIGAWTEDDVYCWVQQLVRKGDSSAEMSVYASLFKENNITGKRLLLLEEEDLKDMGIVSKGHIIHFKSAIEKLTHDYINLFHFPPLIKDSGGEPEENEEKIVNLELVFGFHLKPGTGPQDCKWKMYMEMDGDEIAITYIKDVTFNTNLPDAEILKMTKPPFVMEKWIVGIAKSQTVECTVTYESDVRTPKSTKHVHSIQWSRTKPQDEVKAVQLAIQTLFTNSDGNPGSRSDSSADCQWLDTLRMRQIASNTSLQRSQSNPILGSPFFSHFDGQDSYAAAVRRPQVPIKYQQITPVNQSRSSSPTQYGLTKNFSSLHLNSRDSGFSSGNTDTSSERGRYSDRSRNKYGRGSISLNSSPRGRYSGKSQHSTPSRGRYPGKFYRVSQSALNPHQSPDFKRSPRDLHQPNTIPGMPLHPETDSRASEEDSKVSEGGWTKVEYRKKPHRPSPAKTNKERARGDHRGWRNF

With `CCCCCCCCCCCCC/C=C/C=O` [2-HD, 2-trans-hexadecenal], in assay [1], the “R value (isoTOP-ABPP ratio heavy/light) for IA-labeled cysteine of AHSG” value came to 1.12. Further, in assay [2], the “R value (isoTOP-ABPP ratio heavy/light) for IA-labeled cysteine of ZAK” value (shortened to “R value (isoTOP-ABPP ratio heavy/light) … of ZAK”) is given as 1.05. Besides, the “proteome reactivity profile, high sensitivity (R>5) cysteine targets” value (from here on “proteome reactivity profile”) in assay [3] was “no detectable high sensitivity (R>5) targets”. Further, in assay [4], the “R value (isoTOP-ABPP ratio heavy/light) for IA-labeled cysteine of RPL23” value is 1.87. Besides, in assay [5], the “R value (isoTOP-ABPP ratio heavy/light) for IA-labeled cysteine of PEC1” value is reported as 1.06. Further, in assay [6], the “R value (isoTOP-ABPP ratio heavy/light) for IA-labeled cysteine of DYNC1L11” value was determined as 1.1.
As to `CCCCCC(O)/C=C/C=O` (centres unmarked) [4-HNE, 4-Hydroxynonenal], the “R value (isoTOP-ABPP ratio heavy/light) for IA-labeled cysteine of AHSG” value in assay [1] is 1.35. Moreover, the “R value (isoTOP-ABPP ratio heavy/light) … of ZAK” value in assay [2] is recorded as above 15. For the same molecule, the “blockade of IA-probe labeling of Cys22 of ZAK” value in assay [2] (100 μM) is given as “completely blocked”. For the same molecule, the “proteome reactivity profile” value in assay [3] is “targeting several cysteines in the proteome”. Besides, the IC50 in assay [3] (~700 of 1100 cysteines, 5 HNE concentrations, read-out: IC50 for blockade of IA probe-labeling, vast majority of cysteines) was above 100 µM. Also, the “R value (isoTOP-ABPP ratio heavy/light) for IA-labeled cysteine of RPL23” value in assay [4] was found to be 1.73. Further, in assay [5], the “R value (isoTOP-ABPP ratio heavy/light) for IA-labeled cysteine of PEC1” value is on record as 1.86. The “R value (isoTOP-ABPP ratio heavy/light) for IA-labeled cysteine of DYNC1L11” value in assay [6] was 2.59.
Consider `CCCCC/C=C/C=C1/C(=O)C=C[C@@H]1C/C=C\CCCC(=O)O` [PGJ2, 15-deoxy-Δ12,14-prostaglandin J2], for which the “R value (isoTOP-ABPP ratio heavy/light) for IA-labeled cysteine of AHSG” value in assay [1] is 5.73. Also, in assay [2], the “R value (isoTOP-ABPP ratio heavy/light) … of ZAK” value is on record as 4.24. In assay [3], the “proteome reactivity profile” value is recorded as “targeting several cysteines in the proteome”. Also, in assay [4], the “R value (isoTOP-ABPP ratio heavy/light) for IA-labeled cysteine of RPL23” value amounted to 5.06. Moreover, in assay [5], the “R value (isoTOP-ABPP ratio heavy/light) for IA-labeled cysteine of PEC1” value stood at 8.23. The “R value (isoTOP-ABPP ratio heavy/light) for IA-labeled cysteine of DYNC1L11” value in assay [6] is reported as 5.18.

In general, IC50 refers to the concentration at which inhibition is half-maximal.
